Source: ChEMBL document CHEMBL1201862, “PubChem BioAssay data set” (2004)
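Assay format: 96-well plates, 48-hour exposure. GI50 marks 50% less growth.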 Calls of active or inactive are those of the source. Rule as the data show it: active = GI50 up to about 1.1 µM and inactive = higher.

Columns and labels:
Assay in all cases: DTP human tumour cell line panel, 48 h
MDA-MB-231 = system: MDA-MB-231
HOP-62 = system: HOP-62
OVCAR-3 = system: OVCAR-3
RPMI-8226 = system: RPMI-8226
SF-268 = system: SF-268
A498 = system: A498
KM12 = system: KM12
SK-MEL-28 = system: SK-MEL-28
CCRF-CEM = system: CCRF-CEM
TK-10 = system: TK-10
UACC-257 = system: UACC-257
MDA-MB-435 = system: MDA-MB-435
EKVX = system: EKVX
HT-29 = system: HT-29
OVCAR-8 = system: OVCAR-8
OVCAR-5 = system: OVCAR-5
MDA-N = system: MDA-N
HCT-116 = system: HCT-116
A549 = system: A549

CN(C)CCCN1c2ccccc2C(C)(C)c2ccccc21 [DIMETACRINE]
GI50 (MDA-MB-231): 14.7 µM (inactive) | GI50 (HOP-62): 14.8 µM (inactive) | GI50 (OVCAR-3): 14 µM (inactive) | GI50 (RPMI-8226): 13.1 µM (inactive) | GI50 (SF-268): 13.3 µM (inactive) | GI50 (A498): 11 µM (inactive) | GI50 (KM12): 14.1 µM (inactive) | GI50 (SK-MEL-28): 15.4 µM (inactive) | GI50 (CCRF-CEM): 22.4 µM (inactive) | GI50 (TK-10): 14.2 µM (inactive) | GI50 (UACC-257): 11.7 µM (inactive) | GI50 (MDA-MB-435): 13.2 µM (inactive) | GI50 (EKVX): 17.6 µM (inactive) | GI50 (HT-29): 11.8 µM (inactive) | GI50 (OVCAR-8): 16.1 µM (inactive) | GI50 (OVCAR-5): 14.1 µM (inactive) | GI50 (MDA-N): 14.2 µM (inactive) | GI50 (HCT-116): 14.8 µM (inactive) | GI50 (A549): 14.8 µM (inactive)

O=C1Nc2ccccc2/C1=C1/Nc2ccccc2/C1=N/OCCOCCO
GI50 (MDA-MB-231): 5.93 µM (inactive) | GI50 (HOP-62): 3.9 µM (inactive) | GI50 (OVCAR-3): 2.06 µM (inactive) | GI50 (RPMI-8226): 3.47 µM (inactive) | GI50 (SF-268): 3.19 µM (inactive) | GI50 (A498): 0.259 µM (active) | GI50 (KM12): 0.0423 µM (active) | GI50 (SK-MEL-28): 5.05 µM (inactive) | GI50 (CCRF-CEM): 3.27 µM (inactive) | GI50 (TK-10): 1.86 µM (inactive) | GI50 (UACC-257): 17.5 µM (inactive) | GI50 (MDA-MB-435): 3.15 µM (inactive) | GI50 (EKVX): 2.67 µM (inactive) | GI50 (HT-29): 1.45 µM (inactive) | GI50 (OVCAR-8): 3.91 µM (inactive) | GI50 (OVCAR-5): 4.62 µM (inactive) | GI50 (MDA-N): 3.24 µM (inactive) | GI50 (HCT-116): 0.582 µM (active) | GI50 (A549): 1.69 µM (inactive)

COc1ccc(/C=C/C(=N/NC(=O)N/N=C(/C=C/c2ccc(OC)cc2)C(C)C)C(C)C)cc1
GI50 (MDA-MB-231): > 100 µM (inactive) | GI50 (HOP-62): 22 µM (inactive) | GI50 (OVCAR-3): 41.9 µM (inactive) | GI50 (RPMI-8226): 33.2 µM (inactive) | GI50 (SF-268): > 100 µM (inactive) | GI50 (A498): > 100 µM (inactive) | GI50 (KM12): 51.2 µM (inactive) | GI50 (SK-MEL-28): > 100 µM (inactive) | GI50 (CCRF-CEM): 48.9 µM (inactive) | GI50 (TK-10): 50 µM (inactive) | GI50 (UACC-257): > 100 µM (inactive) | GI50 (MDA-MB-435): > 100 µM (inactive) | GI50 (EKVX): 40 µM (inactive) | GI50 (HT-29): 42.3 µM (inactive) | GI50 (OVCAR-8): 75 µM (inactive) | GI50 (OVCAR-5): 99.5 µM (inactive) | GI50 (MDA-N): > 100 µM (inactive) | GI50 (HCT-116): 66.1 µM (inactive) | GI50 (A549): 45.3 µM (inactive)

CC1C[C@]2(C)C(=S)Nc3ccccc3[C@@H]2Nc2ccccc21 (stereo partly drawn)
GI50 (MDA-MB-231): 13.2 µM (inactive) | GI50 (HOP-62): 17.7 µM (inactive) | GI50 (OVCAR-3): 15.1 µM (inactive) | GI50 (RPMI-8226): 23.4 µM (inactive) | GI50 (SF-268): 1.11 µM (active) | GI50 (A498): 21.5 µM (inactive) | GI50 (KM12): 15.5 µM (inactive) | GI50 (SK-MEL-28): 0.39 µM (active) | GI50 (CCRF-CEM): 17.9 µM (inactive) | GI50 (TK-10): 19 µM (inactive) | GI50 (UACC-257): 15.6 µM (inactive) | GI50 (MDA-MB-435): 14.9 µM (inactive) | GI50 (EKVX): 22.3 µM (inactive) | GI50 (HT-29): 11.9 µM (inactive) | GI50 (OVCAR-8): 15.9 µM (inactive) | GI50 (OVCAR-5): 20.8 µM (inactive) | GI50 (MDA-N): 15 µM (inactive) | GI50 (HCT-116): 12.6 µM (inactive) | GI50 (A549): 19.1 µM (inactive)

CC(=O)O[C@H](C[C@@H](C)[C@H]1C(=O)[C@H](O)[C@@]2(C)C3CC[C@H]4C(C)(C)[C@@H](OC5OCC(O)C(O)C5O)CC[C@@]45C[C@@]35CC[C@]12C)[C@@H]1OC1(C)C (stereo partly drawn)
GI50 (MDA-MB-231): 16.1 µM (inactive) | GI50 (HOP-62): 12.1 µM (inactive) | GI50 (OVCAR-3): 2.29 µM (inactive) | GI50 (RPMI-8226): 12.4 µM (inactive) | GI50 (SF-268): 20.7 µM (inactive) | GI50 (A498): 15.9 µM (inactive) | GI50 (KM12): 22.2 µM (inactive) | GI50 (SK-MEL-28): 20.3 µM (inactive) | GI50 (CCRF-CEM): 1.93 µM (inactive) | GI50 (TK-10): 16.3 µM (inactive) | GI50 (UACC-257): 18.6 µM (inactive) | GI50 (MDA-MB-435): 17.7 µM (inactive) | GI50 (EKVX): 18 µM (inactive) | GI50 (HT-29): 29.4 µM (inactive) | GI50 (OVCAR-8): 20.2 µM (inactive) | GI50 (OVCAR-5): 16.9 µM (inactive) | GI50 (MDA-N): 19.3 µM (inactive) | GI50 (HCT-116): 18.1 µM (inactive) | GI50 (A549): 27.9 µM (inactive)

C=C1CCC2CC1[C@@H](C(=O)c1c[nH]c3ccccc13)NC2(C)C (stereo partly drawn)
GI50 (MDA-MB-231): > 37.5 µM (inactive) | GI50 (HOP-62): > 37.5 µM (inactive) | GI50 (OVCAR-3): > 37.5 µM (inactive) | GI50 (RPMI-8226): > 37.5 µM (inactive) | GI50 (SF-268): > 37.5 µM (inactive) | GI50 (A498): > 37.5 µM (inactive) | GI50 (KM12): > 37.5 µM (inactive) | GI50 (SK-MEL-28): > 37.5 µM (inactive) | GI50 (CCRF-CEM): > 37.5 µM (inactive) | GI50 (TK-10): > 37.5 µM (inactive) | GI50 (UACC-257): > 37.5 µM (inactive) | GI50 (MDA-MB-435): > 37.5 µM (inactive) | GI50 (EKVX): > 37.5 µM (inactive) | GI50 (HT-29): 29.7 µM (inactive) | GI50 (OVCAR-8): > 37.5 µM (inactive) | GI50 (OVCAR-5): > 37.5 µM (inactive) | GI50 (MDA-N): > 37.5 µM (inactive) | GI50 (HCT-116): > 37.5 µM (inactive) | GI50 (A549): > 37.5 µM (inactive)

Cc1c(-c2ccccc2)c(C#N)c2nnc(C(N)=O)c(N)n12
GI50 (MDA-MB-231): > 100 µM (inactive) | GI50 (HOP-62): > 100 µM (inactive) | GI50 (OVCAR-3): > 100 µM (inactive) | GI50 (RPMI-8226): > 100 µM (inactive) | GI50 (SF-268): > 100 µM (inactive) | GI50 (A498): > 100 µM (inactive) | GI50 (KM12): > 100 µM (inactive) | GI50 (SK-MEL-28): > 100 µM (inactive) | GI50 (CCRF-CEM): > 100 µM (inactive) | GI50 (TK-10): > 100 µM (inactive) | GI50 (UACC-257): > 100 µM (inactive) | GI50 (MDA-MB-435): > 100 µM (inactive) | GI50 (EKVX): > 100 µM (inactive) | GI50 (HT-29): > 100 µM (inactive) | GI50 (OVCAR-8): > 100 µM (inactive) | GI50 (OVCAR-5): > 100 µM (inactive) | GI50 (MDA-N): > 100 µM (inactive) | GI50 (HCT-116): > 100 µM (inactive) | GI50 (A549): > 100 µM (inactive)
